# Reference: patent publication US10183950B2, “Thienopyrimidine inhibitors of atypical protein kinase C” (Cancer Research Technology Limited, priority 2011, dated 2019)
# Target: T1, full-length human PKCι (Homo sapiens, UniProt P41743)
# T1 construct: Recombinant, full-length human PKCι expressed in Sf21 insect cells is also commercially available; purchased; host or cells: Sf21 insect cells
# T1 sequence (P41743 1-596): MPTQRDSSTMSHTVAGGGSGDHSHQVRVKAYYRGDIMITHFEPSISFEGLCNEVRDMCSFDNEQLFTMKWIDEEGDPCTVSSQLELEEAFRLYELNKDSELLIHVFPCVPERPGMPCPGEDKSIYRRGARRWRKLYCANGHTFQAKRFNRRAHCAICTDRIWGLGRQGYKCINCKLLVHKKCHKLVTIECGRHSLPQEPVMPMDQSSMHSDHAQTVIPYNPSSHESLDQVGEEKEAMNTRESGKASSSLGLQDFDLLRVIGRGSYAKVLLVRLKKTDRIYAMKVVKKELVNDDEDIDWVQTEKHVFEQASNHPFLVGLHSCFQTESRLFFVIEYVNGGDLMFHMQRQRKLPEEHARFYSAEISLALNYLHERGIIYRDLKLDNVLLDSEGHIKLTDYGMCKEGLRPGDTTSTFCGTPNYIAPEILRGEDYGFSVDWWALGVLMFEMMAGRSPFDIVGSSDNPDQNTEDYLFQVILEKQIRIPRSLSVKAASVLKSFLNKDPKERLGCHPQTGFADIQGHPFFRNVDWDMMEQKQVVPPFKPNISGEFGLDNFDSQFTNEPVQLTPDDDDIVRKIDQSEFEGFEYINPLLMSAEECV
# Assay: PKCι IC50 IMAP fluorescence polarisation assay, full-length enzyme
# Type: biochemical
# Conditions: full length PKCi at 15 μM ATP; read-out: IC50 in IMAP assay against full length PKCi
row,Compound,IC50
1,"CC(C)(O)C#Cc1c(C(C)(C)C)sc2c(NC[C@@H](N)Cc3ccccc3)nc(-c3ccncc3)nc12 [compound 505, 4-[4-((S)-2-Amino-3-phenyl-propylamino)-6-tert-butyl-2-pyridin-4-yl-thieno[3,2-d]pyrimidin-7-yl]-2-methyl-but-3-yn-2-ol]",1000 to 10000 nM
2,"Cc1ccc(Nc2cc(-c3nc(N[C@@H]4CCNC4)c4sccc4n3)ccn2)nn1 [compound 588, {2-[2-(6-Methyl-pyridazin-3-ylamino)-pyridin-4-yl]-thieno[3,2-d]pyrimidin-4-yl}-(R)-pyrrolidin-3-yl-amine]",100 to 1000 nM
3,"N[C@H](CNc1nc(-c2ccncc2)nc2c(C#CCCO)csc12)Cc1ccccc1 [compound 531, 4-[4-((S)-2-Amino-3-phenyl-propylamino)-2-pyridin-4-yl-thieno[3,2-d]pyrimidin-7-yl]-but-3-yn-1-ol]",< 100 nM
4,"O[C@H]1CNC[C@@H]1Nc1nc(-c2ccncc2)nc2ccsc12 [compound 319, (3S,4S)-4-(2-Pyridin-4-yl-thieno[3,2-d]pyrimidin-4-ylamino)-pyrrolidin-3-ol]",1000 to 10000 nM
5,"Brc1csc2c(N[C@@H]3CCNC3)nc(-c3ccncc3)nc12 [compound 351, (7-Bromo-2-pyridin-4-yl-thieno[3,2-d]pyrimidin-4-yl)-(R)-pyrrolidin-3-yl-amine]",< 100 nM
6,"CCCC#Cc1csc2c(NC[C@@H](N)Cc3ccccc3)nc(-c3ccncc3)nc12 [compound 401, (S)-N*1*-(7-Pent-1-ynyl-2-pyridin-4-yl-thieno[3,2-d]pyrimidin-4-yl)-3-phenyl-propane-1,2-diamine]",100 to 1000 nM
7,"CC(C)Nc1cc(-c2nc(N[C@@H]3CCNC3)c3sccc3n2)ccn1 [compound 626, [2-(2-Isopropylamino-pyridin-4-yl)-thieno[3,2-d]pyrimidin-4-yl]-(R)-pyrrolidin-3-yl-amine]",1000 to 10000 nM
8,"COc1cccc(OC)c1-c1c(C)sc2c(NC[C@@H](N)Cc3ccccc3)nc(-c3ccncc3)nc12 [compound 454, (S)-N*1*-[7-(2,6-Dimethoxy-phenyl)-6-methyl-2-pyridin-4-yl-thieno[3,2-d]pyrimidin-4-yl]-3-phenyl-propane-1,2-diamine]",10000 to 40000 nM
9,"N[C@H](CNc1nc(-c2ccncc2)nc2c(C(=O)NC3CC3)csc12)Cc1ccccc1 [compound 556, 4-((S)-2-Amino-3-phenyl-propylamino)-2-pyridin-4-yl-thieno[3,2-d]pyrimidine-7-carboxylic acid cyclopropylamide]",100 to 1000 nM
10,"C[C@H](O)C#Cc1csc2c(N[C@@H]3CCNC3)nc(-c3ccncc3)nc12 [compound 517, (S)-4-[2-Pyridin-4-yl-4-((R)-pyrrolidin-3-ylamino)-thieno[3,2-d]pyrimidin-7-yl]-but-3-yn-2-ol]",< 100 nM
11,"c1cc(-c2nc(N[C@@H]3CCNC3)c3sccc3n2)cc(NC2CCOCC2)n1 [compound 625, (R)-Pyrrolidin-3-yl-{2-[2-(tetrahydro-pyran-4-ylamino)-pyridin-4-yl]-thieno[3,2-d]pyrimidin-4-yl}-amine]",10000 to 40000 nM
12,"N[C@H](CNc1nc(-c2ccncc2F)nc2c(C#CCCO)csc12)Cc1ccccc1 [compound 501, 4-[4-((S)-2-Amino-3-phenyl-propylamino)-2-(3-fluoro-pyridin-4-yl)-thieno[3,2-d]pyrimidin-7-yl]-but-3-yn-1-ol]",100 to 1000 nM
13,"c1cn(Cc2ccc(Nc3cc(-c4nc(N[C@@H]5CCNC5)c5sccc5n4)ccn3)cc2)cn1 [compound 614, {2-[2-(4-Imidazol-1-ylmethyl-phenylamino)-pyridin-4-yl]-thieno[3,2-d]pyrimidin-4-yl}-(R)-pyrrolidin-3-yl-amine]",100 to 1000 nM
14,"N[C@H](CNc1nc(-c2cc[n+]([O-])cc2)nc2c(Br)csc12)Cc1ccccc1 [compound 564, (S)—N*1*-[7-Bromo-2-(1-oxy-pyridin-4-yl)-thieno[3,2-d]pyrimidin-4-yl]-3-phenyl-propane-1,2-diamine]",1000 to 10000 nM
15,"O=C(Nc1ccccc1)Nc1cc(-c2nc(N[C@@H]3CCNC3)c3sccc3n2)ccn1 [compound 575, 1-Phenyl-3-{4-[4-((R)-pyrrolidin-3-ylamino)-thieno[3,2-d]pyrimidin-2-yl]-pyridin-2-yl}-urea]",100 to 1000 nM
16,"CC(C)(C)/C=C/c1csc2c(NC[C@@H](N)Cc3ccccc3)nc(-c3ccncc3)nc12 [compound 406, (S)-N*1*-[7-((E)-3,3-Dimethyl-but-1-enyl)-2-pyridin-4-yl-thieno[3,2-d]pyrimidin-4-yl]-3-phenyl-propane-1,2-diamine]",1000 to 10000 nM
17,"COc1ccc(C(C)(C)C)cc1-c1c(C)sc2c(NC[C@@H](N)Cc3ccccc3)nc(-c3ccncc3)nc12 [compound 461, (S)-N*1*-[7-(5-tert-Butyl-2-methoxy-phenyl)-6-methyl-2-pyridin-4-yl-thieno[3,2-d]pyrimidin-4-yl]-3-phenyl-propane-1,2-diamine]",10000 to 40000 nM
18,"c1csc(-c2ccc(Nc3cc(-c4nc(N[C@@H]5CCNC5)c5sccc5n4)ccn3)cc2)c1 [compound 616, (R)-Pyrrolidin-3-yl-{2-[2-(4-thiophen-2-yl-phenylamino)-pyridin-4-yl]-thieno[3,2-d]pyrimidin-4-yl}-amine]",100 to 1000 nM
19,"CC(C)(C)c1sc2c(NC[C@@H](N)Cc3ccccc3)nc(-c3ccncc3)nc2c1-c1cccc(F)c1 [compound 436, (S)-N*1*-[6-tert-Butyl-7-(3-fluoro-phenyl)-2-pyridin-4-yl-thieno[3,2-d]pyrimidin-4-yl]-3-phenyl-propane-1,2-diamine]",10000 to 40000 nM
20,"CN1CCN(c2cccc(Nc3cc(-c4nc(N[C@@H]5CCNC5)c5sccc5n4)ccn3)c2)CC1 [compound 605, (2-{2-[3-(4-Methyl-piperazin-1-yl)-phenylamino]-pyridin-4-yl}-thieno[3,2-d]pyrimidin-4-yl)-(R)-pyrrolidin-3-yl-amine]",100 to 1000 nM
21,"CN(C)C(=O)c1csc2c(NC[C@@H](N)Cc3ccccc3)nc(-c3ccncc3)nc12 [compound 550, 4-((S)-2-Amino-3-phenyl-propylamino)-2-pyridin-4-yl-thieno[3,2-d]pyrimidine-7-carboxylic acid dimethylamide]",1000 to 10000 nM
22,"CC(C)(O)C#Cc1csc2c(NC[C@@H](N)Cc3ccccc3)nc(-c3ccncc3F)nc12 [compound 509, 4-[4-((S)-2-Amino-3-phenyl-propylamino)-2-(3-fluoro-pyridin-4-yl)-thieno[3,2-d]pyrimidin-7-yl]-2-methyl-but-3-yn-2-ol]",100 to 1000 nM
23,"N[C@H](CNc1nc(-c2ccncc2)nc2c(C#CCCF)csc12)Cc1ccccc1 [compound 546, (S)-N*1*-[7-(4-Fluoro-but-1-ynyl)-2-pyridin-4-yl-thieno[3,2-d]pyrimidine]",100 to 1000 nM
24,"CC(C)(C)c1sc2c(NC[C@@H](N)Cc3ccccc3)nc(-c3ccncc3)nc2c1-c1ccoc1 [compound 445, (S)-N*1*-(6-tert-Butyl-7-furan-3-yl-2-pyridin-4-yl-thieno[3,2-d]pyrimidin-4-yl)-3-phenyl-propane-1,2-diamine]",10000 to 40000 nM
25,"C[C@H](O)C#Cc1csc2c(N[C@@H]3CCNC3)nc(-c3ccncc3F)nc12 [compound 527, (S)-4-[2-(3-Fluoro-pyridin-4-yl)-4-((R)-pyrrolidin-3-ylamino)-thieno[3,2-d]pyrimidin-7-yl]-but-3-yn-2-ol]",10000 to 40000 nM
26,"N[C@H](CNc1nc(-c2ccncc2)nc2c(-c3cn[nH]n3)csc12)Cc1ccccc1 [compound 547, (S)-3-Phenyl-N*1*-[2-pyridin-4-yl-7-(3H-[1,2,3]triazol-4-yl)-thieno[3,2-d]pyrimidin-4-yl]-propane-1,2-diamine]",< 100 nM
27,"C[C@H](Nc1cc(-c2nc(N[C@@H]3CCNC3)c3sccc3n2)ccn1)c1ccccc1 [compound 587, {2-[2-((S)-1-Phenyl-ethylamino)-pyridin-4-yl]-thieno[3,2-d]pyrimidin-4-yl}-(R)-pyrrolidin-3-yl-amine]",100 to 1000 nM
28,"N[C@H](CNc1nc(-c2ccncc2)nc2c(-c3ccc(F)cc3)csc12)Cc1ccccc1 [compound 409, (S)-N*1*-[7-(4-Fluoro-phenyl)-2-pyridin-4-yl-thieno[3,2-d]pyrimidin-4-yl]-3-phenyl-propane-1,2-diamine]",100 to 1000 nM
29,N[C@H](CNc1nc(-c2ccncc2)nc2c(C#CC3(O)CCCC3)csc12)Cc1ccccc1 [compound 528],< 100 nM

# Same assay, conditions: full length PKCi at 15 μM ATP; read-out: IC50 in IMAP assay against full length PKCi (Activity)
row,Compound,IC50
1,"N[C@H](CNc1nc(-c2ccncc2O)nc2sc3c(c12)CCCC3)Cc1ccccc1 [compound 103, 4-[4-((S)-2-Amino-3-phenyl-propylamino)-5,6,7,8-tetrahydro-benzo[4,5]thieno[2,3-d]pyrimidin-2-yl]-pyridin-3-ol]",1000 to 10000 nM
2,"NCCNc1nc(-c2ccncc2)nc2sc3c(c12)CCN(C(=O)C1CC1)C3 [compound 108, [4-(2-Amino-ethylamino)-2-pyridin-4-yl-5,8-dihydro-6H-pyrido[4′,3′:4,5]thieno[2,3-d]pyrimidin-7-yl]-cyclopropyl-methanone]",10000 to 40000 nM
3,Cc1ccc(C[C@H](N)CNc2nc(-c3ccncc3)nc3sc4c(c23)CCCC4)cc1 [compound 46],1000 to 10000 nM
